# US20260207769A1, “ANTIBODY DRUG CONJUGATES” (YALE UNIVERSITY, priority 2022, published 2026)
# Assays:
# [1] = test system: HCT116 colorectal cancer cells; assay: Cell viability of WT HCT116 cells; format: cell-based
# Procedure: (§1) WT and mutant IDH1 (IDH1^mut) HCT116 cells were treated with different concentrations of SN38, cD31N antibody, or cD31N-SN38 conjugate. The effects of 3E10-cD31N-SN38 conjugate treatment on HCT116 WT and HCT116IDH1^mut were investigated.
# [2] = test system: LoVo colorectal cancer cells; assay: Cell viability of LoVo cells after 7 days of treatment; format: cell-based
# Procedure: LoVo colorectal cancer cells were treated with SN38, cD31N antibodies, V66 3E10 antibodies, and conjugates of the present disclosure. […] The EC50 values were calculated and are set forth below in Table 3.
# HCT116- IDH1^mut cells = assay: Cell viability of HCT116-IDH1mut cells; format: cell-based
# Procedure: as §1
# [3] = test system: PEO-4 (WT) ovarian adenocarcinoma cells; assay: Cell viability of PEO-4 cells; format: cell-based; conditions: PEO-4 (WT) cells, at 7 days
# Excerpt: (§2) Cancer cell lines were acquired from ATCC and cultured according to well known methods in the art. Treatment with cytotoxic agents, antibodies, or ADCs refers to the addition of the cytotoxic agent, antibody or ADC (i.e., DM1 or cD31N-DM1, etc.) to the culture media for a set duration.
# The effects of longer-term treatment with SN38 and cD31N-SN38 on PEO-4 (WT) and PEO-1 (BRCA2^−/−) ovarian cancer cells were investigated.
# BRCA2^−/− DLD-1 cells = assay: Clonogenic assay in BRCA2-/- DLD-1 cells; format: cell-based, human; conditions: BRCA2-/- DLD-1, after 10 days
# Procedure: (§3) Clonogenic or colony formation assays are in vitro assays that can measure the survival or growth of cells on a single-cell level based on the ability of a single cell to grow into a colony. WT or BRCA2^−/− DLD-1 cells were plated with different concentrations of SN38, 3E10 antibody, or 3E10-SN38 conjugate added into the clonogenic assay media. After 7 days for WT cells or 10 days for BRCA2^−/− cells, colony numbers were counted to quantify DLD-1 cell survival. […] Consistent with earlier results, DLD-1 cell survival was concentration-dependent.
# WT HCT116 cells = assay: Clonogenic assay in WT HCT116 cells; format: cell-based
# Procedure: as §3
# (§4) The effects of treatment with SN38 or 3E10-SN38 conjugates on HCT116 cells were tested in clonogenic assays as previously described. WT and IDH1^mut HCT116 cells were treated with SN38, cD31N antibody, or cD31N-SN38 conjugate. Cell survival of WT (FIG. 25A) and IDH1^mut HCT116 cells (FIG. 25B) was quantified after 7 days for WT cells or 10 days for […].
# [4] = test system: DNA damage response proteins; assay: Western blot of DNA damage response proteins in SKOV3 cells; format: cell-based; conditions: 100 nM, 24, 48 and 72 hours
# Procedure: SKOV3 ovarian cancer cells were treated with 100 nM of SN38, cD31N antibody, or cD31N-SN38 as indicated and collected at 24, 48, and 72 hours of treatment for Western blot analysis to measure specific protein markers of DNA damage response as previously described. […] In particular, 7H2AX levels increased over time.
# [5] = test system: BRCA2^−/− DLD-1 colorectal adenocarcinoma cells; assay: Cell viability assay in BRCA2-/- DLD-1 cells; format: cell-based, human; conditions: BRCA^−/− DLD-1 cells
# Excerpt: as §2
# (§5) BRCA2 deficient (BRCA2′) cells are more sensitive to DM1 because BRCA2 participates in DNA double-stranded break (DSB) repair.
# [6] = test system: SKOV3 ovarian cancer cells; assay: Cell viability of SKOV3 cells at 7 days of treatment; format: cell-based
# Procedure: The effect of SN38 and 3E10-SN38 conjugates were investigated in SKOV3 ovarian cancer cells. SKOV3 cells were treated with SN38, various 3E10 antibodies and 3E10-SN38 conjugates.
# EC50 values are also included.
# The EC50 values were calculated and are set forth below in Table 4.
# [7] = test system: DNA damage response proteins such as γH2AX, p-ATM, and p-ATR; assay: Western blot of DNA damage response proteins in WT DLD-1 cells; format: cell-based, human
# Procedure: SN38 causes DNA damage via inhibition of topoisomerase I. Therefore, DNA damage was measured in both wild-type (WT) and BRCA2 deficient (BRCA2′) DLD-1 cells by induction of γH2AX after treatment with one of the following: no treatment (NT), SN38 alone (SN38), wild-type 3E10 antibody alone (cWT), 3E10-cD31N antibody alone, cWT-SN38 conjugate, or cD31N-SN38 conjugate. After treatment with 100 nM of the antibody or conjugate for 48 hours, the DLD-1 cells were collected for Western blot analysis to measure 7H2AX protein levels. […] These findings were consistent in both WT and BRCA2^−/− DLD-1 cells, but γH2AX protein levels were elevated across all groups in BRCA2^−/− DLD-1 cells.
# DNA damage caused by SN38 or 3E10-SN38 conjugates in WT and BRCA2^−/− DLD-1 cells was assessed by measuring the levels of proteins involved in DNA damage response, p-ATM, p-ATR, pBRCA1, Topoisomerase 1 (TOPO-1), pChk2, pChk1, γH2AX and H2AX. DLD-1 cells were treated with 100 nM of SN38, cWT antibody, cD31N antibody, cWT-SN38 conjugate, or cD31N-SN38 conjugate and collected for Western blot after 24 (FIG. 21A) and 48 hours (FIG. 21B). No treatment (NT) was used as control.
# HCT116-IDH1^mut cells = assay: Clonogenic assay in HCT116-IDH1mut cells; format: cell-based; conditions: after 10 days
# Procedure: as §3, §4
# [8] = test system: WT DLD-1 colorectal adenocarcinoma cells; assay: Cell viability assay in WT DLD-1 cells; format: cell-based, human
# Excerpt: as §2, §5
# The viability assay protocol is set forth in Example 3.
# WT DLD-1 cells = assay: Clonogenic assay in WT DLD-1 cells; format: cell-based, human; conditions: WT DLD-1, after 7 days
# Procedure: as §3
compound,measurement,setting,value
"CCc1c2c(nc3ccc(O)cc13)-c1cc3c(c(=O)n1C2)COC(=O)[C@]3(O)CC [SN38, SN-38]",cell viability,[1]; 5 days of treatment,substantial loss in cell viability
same,cell viability,[1]; 7 days of treatment,substantial loss in cell viability
same,EC50,[2],5.8 nM
same,cell viability,[2],strongest effect on cell viability
same,cell viability,HCT116- IDH1^mut cells; 5 days of treatment,substantial loss in cell viability
same,cell viability,HCT116- IDH1^mut cells; 7 days of treatment,substantial loss in cell viability
same,cell viability,[3],reduced cell viability in a concentration-dependent manner resulting in low EC50 values
same,cell survival (colony numbers),BRCA2^−/− DLD-1 cells,reduced cell survival
same,survival fraction,WT HCT116 cells; 1 nM,0%
same,cell survival (clonogenic),WT HCT116 cells; after 7 days,low levels of cell survival in a concentration-dependent manner
same,protein expression of DNA damage response proteins,[4],protein expression of DNA damage response proteins was increased
same,EC50,[5],0.65 nM
same,cell viability at the highest concentrations,[6],about 0%
same,EC50,[6]; 7 days of treatment,2.8 nM
same,protein levels of DNA damage response proteins,"[7]; WT DLD-1, 100 nM, 24 and 48 hour time points","increased the protein levels of DNA damage response proteins such as γH2AX, p-ATM, and p-ATR"
same,TOPO-1 levels,"[7]; WT DLD-1, 100 nM, 24 and 48 hours",reduced TOPO-1 levels
same,γH2AX induction (Western blot),"[7]; WT DLD-1, 100 nM, 24 hours (Example 10)",7H2AX was induced
same,γH2AX detection (Western blot),"[7]; WT DLD-1, 100 nM, 48 hours (Example 10)",7H2AX was detected
same,γH2AX protein levels (Western blot),"[7]; WT DLD-1 cells, 100 nM, 48 hours (Example 5)",induced the highest levels of γH2AX expression
same,cell survival (clonogenic),HCT116-IDH1^mut cells,low levels of cell survival
same,EC50,[8],6.26 nM
same,cell survival (colony numbers),WT DLD-1 cells,reduced cell survival
